Experimental findings from US20230414700A1, “TG2 INHIBITORS FOR IMPROVING MUCOCILIARY CLEARANCE IN RESPIRATORY DISEASES” (INSERM (INSTITUT NATIONAL DE LA SANTÉ ET DE LA RECHERCHE …, priority 2020, published 2023) are described below.

Molecules are shown by their SMILES. “Also recorded” adds a separate entry of the source. Square brackets hold non-standard residues; d marks the D form. Peptide text beside a SMILES is read from it. * marks the point of attachment. ξ: configuration not given here. DON = [N-]=[N+]=CC(=O)CC[C@H](N)C(=O)O; Ile(3ξ) = CCC(C)[C@H](N)C(=O)O; Cbz = O=C(OCc1ccccc1)*

Assay [1] deals with IL-13-stimulated hypersecretory epithelia. The assay can be described thus: Mucociliary clearance by video microscopy using fluorescent microspheres. It counts as cell-based. The note with it: 30-second image sequence, n=2. The method, then: The final image from a 30-second image sequence (every 5 ms) is shown (ImageJ, Z Project). B: Quantification of travelled distance (ImageJ, Plugin MTrack3). Median values are shown. n=2.
(§1) Methods: The bronchial epithelium from asthmatic patients, cystic fibrosis or control subjects was reconstituted in vitro by culturing cells at the air-liquid interface. Hyper secretory differentiation was modeled by exposing control bronchial epithelial to IL-13. Expression of TG2 and MUC5AC was assessed by RT-qPCR and immunohistochemistry/immunofluorescence. Mucin modification by TG2 was evaluated by BAP incorporation and Western-blot analysis. Mucus tethering to the apical surface was studied by detecting MUC5AC after extensive apical washes with PBS. The role of TG2 was evaluated using the pharmacological inhibitor ZDON. Mucociliary clearance was evaluated by video microscopy using fluorescent microspheres.

The test system of assay [2] is ALI-regenerated hypersecretory epithelia. Nature of the assay: Mucus (MUC5AC) tethering to the apical surface after extensive apical washes with PBS, immunofluorescence. It counts as cell-based. The note with it: IL-13-induced hypersecretory bronchial epithelium reconstituted in vitro at air-liquid interface; n=2.
Text: Whole-mount images represent stacks from optical sections done through the mucus (parallel to the plane of the epithelium). epi, epithelium. Extracellular mucus was quantified after beta-tubulin staining to delineate cell apex, and expressed as sum intensities (in […]) (n=2).
as §1

Regarding `CCC(C)[C@H](NC(=O)[C@H](CCC(N)=O)NC(=O)[C@H](CCC(=O)C=[N+]=[N-])NC(=O)OCc1ccccc1)C(=O)N[C@H](C(=O)OC)C(C)C` (some centres unmarked) [ZDON] (Cbz-[DON]Q[Ile(3ξ)]V-OMe), in assay [1], the “Mucociliary clearance (travelled distance of fluorescent microspheres)” value was “tends to ameliorate mucociliary clearance”. Moreover, the “MUC5AC tethering to the apical surface of hypersecretory epithelia” value in assay [2] is recorded as “decreases MUC5AC tethering; also recorded: blocked”.
